From PMC11845331, “Teicoplanin pharmacokinetics in critically ill patients on extracorporeal organ support: a retrospective analysis” (Intensive Care Medicine Experimental, 2025)

How the values were obtained:
[1] = Teicoplanin plasma trough levels (TCtrough) from therapeutic drug monitoring during ECMO support; type: in vivo, human
Excerpt: This single-center retrospective study included critically ill, adult (> 18 years old) patients hospitalized at the tertiary intensive care unit (ICU) of the University Hospital Zurich, Switzerland, an academic teaching hospital. The local ICU provides care for patients from all medical and surgical fields. All patients undergoing extracorporeal membrane oxygenation (ECMO) support and intravenous teicoplanin treatment were eligible for study inclusion from 1.1.2010 to 19.07.2023. Patients were included irrespective of the admitting diagnosis and independent of the ECMO configuration (veno-venous, veno-arterial or others with, e.g., multiple cannulation sites). Patients aged < 18 years were excluded. Other exclusion criteria were documented verbal or written refusal to participate in this study. Patients were also excluded if teicoplanin was not administered for any portion of the ECMO treatment period (e.g., if given only before or after the ECMO treatment period) or if no trough levels were obtained during ECMO support.
Data were collected with the use of two in-hospital electronic medical records databases, the KISIM (Cistec AG, Zurich, Switzerland) and the Patient Data Management System (PDMS) MetaVision (iMDsoft, Dusseldorf, Germany). Collected data included baseline demographic data (including age, gender and body mass index), comorbidities (including cardiovascular conditions, pulmonary diseases, renal insufficiency) and immunosuppression (including patients with prior organ transplantation), ICU admitting diagnoses, and the indication for teicoplanin treatment (empiric vs. targeted). Moreover, ICU treatment modalities and scores (e.g., organ support and scores such as the Sequential Organ Failure Assessment Score SOFA and the Simplified Acute Physiology Score SAPS II) and patient outcomes (including ICU length of stay and survival) were gathered. Teicoplanin trough levels and dosages over time were obtained from the medical records (see below).
In our hospital, intravenous teicoplanin is normally administered for empiric or targeted coverage of Gram-positive microorganisms. The standard loading dose is 400 mg infused at 0 h, 12 h and 24 h. Thereafter, 400 mg are administered every 24 h. Measurement of teicoplanin trough levels (TCtrough) is recommended prior to the fifth dose and this also applies to dose adjustments. In case of renal impairment, TCtrough levels are recommended to be measured prior to the second dose, in order to detect potential overdosing early. If the estimated glomerular filtration rate (eGFR) is subnormal, teicoplanin starting dosage is adjusted (eGFR 40–60 ml/min: 200 mg/24 h, eGFR < 40 ml/min: 100 mg/24 h).
In case the patient is undergoing continuous renal replacement therapy, 200–400 mg teicoplanin every 24 h are recommended. In general, TCtrough of 10–30 mg/l are targeted. TCtrough < 10 mg/l are considered insufficient, whereas TCtrough > 30 mg/l are considered toxic. In case TCtrough are not within the target ranges, dose adaptations can be prescribed by the clinicians in charge. In case a measured TCtrough is toxic (i.e., > 30 mg/l), no more teicoplanin is administered, however TCtrough are measured on a daily basis. […] After increasing the dose, subsequent teicoplanin levels are again measured prior to the fifth dose or prior to the second dose in case of renal impairment, respectively. […]

[2] = Adverse reactions to teicoplanin in critically ill patients on ECMO; type: in vivo, human; conditions: all 23 included patients on ECMO, i.v. teicoplanin
Excerpt: The primary outcome of this study was the proportion of patients with insufficient or toxic TCtrough during ECMO support. Secondary outcomes included the observed TCtrough and teicoplanin dosages over time during ECMO support and dependent on the presence of continuous renal replacement therapy (CRRT), as well as the occurrence of side effects (such as hemotoxicity, hepatotoxicity or skin changes) leading to discontinuation of teicoplanin treatment.

[3] = human, in vivo; cited from earlier work
Description: Chen et al. focused on the effect of applying high loading doses in 11 patients receiving veno-arterial ECMO treatment. In their study, four loading doses greater than 10 mg/kg were applied within the first 72 h. Before the application of the maintenance dose, the authors reported adequate therapeutic TCtrough for severe infections in more than 90% of patients. In our study, the loading dose of 400 mg was markedly lower, which presumably might have contributed to our observed low TCtrough in a significant proportion of patients particularly during the first days of ECMO su ...

[4] = cited from earlier work
Excerpt: Recently, more attention has been drawn to antimicrobial serum levels and dosing in patients receiving ECMO treatment. While marked concentration variability during ECMO treatment has been observed for many common antimicrobials used in the ICU including meropenem, cefepime, ceftriaxone, piperacillin or vancomycin [14], data for teicoplanin are scarce so far.

Substance: Teicoplanin
- TCtrough mean difference, ECMO alone vs ECMO and CRRT ([1]; 95% CI 6–13, p < 0.0001): 9 mg/L
- Influence of ECMO circuit configuration (veno-venous vs. veno-arterial) on TCtrough over time ([1]; Fig. 3): did not have a significant influence
- TCtrough in patients with ECMO and CRRT ([1]; critically ill adult ICU patients, i.v. teicoplanin, plasma trough level, ECMO plus continuous renal replacement therapy, median [IQR 5–16]): 9 mg/L
- TCtrough in patients with ECMO treatment alone ([1]; critically ill adult ICU patients, i.v. teicoplanin, plasma trough level, ECMO without CRRT, median [IQR 12–24 mg/l]): 18 mg/L
- TCtrough mean difference in relation to oxygenator changes (pre vs. post) ([1]; five cases with available data, 95% CI –12 to 15, p = 0.8108): 1.5 mg/L
- Drug reactions or other adverse reactions to teicoplanin [2]: no drug reactions or other adverse reactions to teicoplanin were observed
- Proportion of patients with adequate therapeutic TCtrough for severe infections before the maintenance dose [3]: more than 90%
- Loss of teicoplanin within the ECMO circuit ([4]; ex vivo blood-primed ECMO circuits): significant loss of teicoplanin
- Lowering of central volume of distribution with ECMO treatment ([4]; population pharmacokinetic model, 10 adult ECMO patients): 34%
